Reference: ChEMBL document CHEMBL1201862, “PubChem BioAssay data set” (2004)
The source made the active and inactive calls.

Key:
[1] = biological target: Serine/threonine-protein phosphatase PP1-alpha catalytic subunit (Homo sapiens, UniProt P62136); experiment: PP1 phosphatase inhibitors, dose response, biochemical, fluorescence (AID 2403);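 note: phosphatase turnover of OMFP into fluorescent 3-O-methylfluorescein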
[2] = inhibitors of intracellular T. cruzi replication, confirmation, NIH3T3 host cells, beta-gal luminescence (AID 2044); type: functional, cell-based;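 note: intracellular parasites grown in NIH/3T3 mouse fibroblasts as host cells; luminescent beta-galactosidase reporter signal from transgenic T. cruzi replicating inside host cells; inhibitors lower the luminescence signal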
[3] = biological target: Serine/threonine-protein phosphatase (Homo sapiens, UniProt Q9BPW0); experiment: Counterscreen for inhibitors of PP1: fluorescence-based biochemical high throughput dose response assay to identify inhibitors of Protein Phosphatase 5 (PP5). [Related pubchem assays: 2034 (Summary (PP5 inhibitors)), 1987 (PP5 inhibitors in singlate), 2235 (PP1 inhibitors in singlate)]
Serine/threonine-protein phosphatase, sequence (Q9BPW0 whole entry): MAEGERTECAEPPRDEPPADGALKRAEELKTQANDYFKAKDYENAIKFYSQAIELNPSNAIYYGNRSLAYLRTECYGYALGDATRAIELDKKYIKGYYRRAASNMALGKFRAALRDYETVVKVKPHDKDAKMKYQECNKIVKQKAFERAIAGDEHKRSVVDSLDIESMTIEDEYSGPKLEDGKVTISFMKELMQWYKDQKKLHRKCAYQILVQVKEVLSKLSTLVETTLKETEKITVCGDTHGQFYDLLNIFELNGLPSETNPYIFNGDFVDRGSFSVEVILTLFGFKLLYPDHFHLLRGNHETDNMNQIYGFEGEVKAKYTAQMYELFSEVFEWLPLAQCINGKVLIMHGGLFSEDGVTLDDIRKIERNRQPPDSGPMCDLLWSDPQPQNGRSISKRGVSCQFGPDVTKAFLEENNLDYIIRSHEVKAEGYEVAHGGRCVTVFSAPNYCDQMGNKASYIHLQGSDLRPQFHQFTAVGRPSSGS

[4] = cytotoxicity toward NIH3T3 fibroblasts, dose response, counter-screen, cell-based, ATP luminescence, mouse fibroblasts (AID 2010); type: functional;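 note: cells exposed to compound for about 90 hours before reading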
[5] = Shn3 3'UTR reporter inhibitors, dose response, cell-based, Clone20 osteoblasts, firefly luciferase, cherry-picked (AID 624132); type: functional;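 note: firefly luciferase luminescence from reporter carrying the Shn3 3'UTR in osteoblasts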
[6] = HepG2 cell cytotoxicity, dose response, cytotoxicity control for Shn3 inhibitor project, CellTiter-Glo, cherry-picked (AID 624134); type: functional, cell-based
[7] = control 3'UTR Renilla luciferase suppression, dose response, counter-screen for Shn3 inhibitor project, cell-based, Clone20-Shn3RL, cherry-picked (AID 624133); type: functional
[8] = biological target: G2/mitotic-specific cyclin-B1 (Homo sapiens, UniProt P14635); experiment: Counterscreen assay for inhibitors of Wee1 degradation: dose response cell-based assay to identify inhibitors of cyclin B degradation. [Related pubchem assays: 1410, 1321 ]; type: functional
G2/mitotic-specific cyclin-B1, sequence (P14635 whole entry): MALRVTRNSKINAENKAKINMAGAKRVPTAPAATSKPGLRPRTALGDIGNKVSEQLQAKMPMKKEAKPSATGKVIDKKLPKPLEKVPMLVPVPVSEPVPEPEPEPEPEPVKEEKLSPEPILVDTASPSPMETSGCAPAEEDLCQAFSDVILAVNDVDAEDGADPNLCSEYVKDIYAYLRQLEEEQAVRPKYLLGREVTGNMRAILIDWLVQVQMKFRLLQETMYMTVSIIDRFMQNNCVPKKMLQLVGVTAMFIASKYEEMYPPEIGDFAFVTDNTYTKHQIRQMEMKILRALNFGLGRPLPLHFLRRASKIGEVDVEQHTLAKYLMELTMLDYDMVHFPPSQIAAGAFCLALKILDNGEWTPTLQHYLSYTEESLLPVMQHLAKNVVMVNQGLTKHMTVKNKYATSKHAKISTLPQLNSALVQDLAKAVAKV

[9] = Luminescence Cell-Based Dose Response HTS to Identify Activators of Luciferase Translation or Activity in H4 […] Cells. [Related pubchem assays: 1829 (Project Summary), 1814 (Primary HTS)]; type: functional
Wee1-like protein kinase = Wee1-like protein kinase (Homo sapiens, UniProt P30291); experiment: Dose Response Cell-based Assay for Inhibitors of Wee1 Degradation. [Related pubchem assays: 1410, 1321 ]; type: functional
Wee1-like protein kinase, sequence (P30291 whole entry): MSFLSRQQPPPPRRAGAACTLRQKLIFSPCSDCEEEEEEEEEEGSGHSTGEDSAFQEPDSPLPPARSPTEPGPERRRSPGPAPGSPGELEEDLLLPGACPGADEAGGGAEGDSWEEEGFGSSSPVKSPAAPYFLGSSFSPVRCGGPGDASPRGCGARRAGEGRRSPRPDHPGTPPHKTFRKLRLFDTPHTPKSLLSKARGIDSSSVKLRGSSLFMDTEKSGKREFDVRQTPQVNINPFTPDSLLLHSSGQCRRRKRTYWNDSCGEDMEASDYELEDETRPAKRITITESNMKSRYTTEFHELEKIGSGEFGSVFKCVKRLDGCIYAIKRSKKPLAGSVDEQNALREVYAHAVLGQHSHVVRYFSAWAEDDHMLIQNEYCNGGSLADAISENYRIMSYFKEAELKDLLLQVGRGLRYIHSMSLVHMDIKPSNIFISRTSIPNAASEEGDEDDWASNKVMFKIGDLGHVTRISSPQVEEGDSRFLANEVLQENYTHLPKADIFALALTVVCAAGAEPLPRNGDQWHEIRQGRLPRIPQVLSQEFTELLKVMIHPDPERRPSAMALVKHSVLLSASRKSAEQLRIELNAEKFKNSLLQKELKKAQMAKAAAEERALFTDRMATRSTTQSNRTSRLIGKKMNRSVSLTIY

H4 = experiment: Luminescence Cell-Based Dose Response HTS to Identify Activators of 5'UTR Stem-Loop Driven Prion Protein mRNA Translation in H4 Neuroglioblastoma Cells. [Related pubchem assays: 1829 (Project Summary), 1814 (Primary HTS)]; type: functional; conditions: Homo sapiens
Aminopeptidase N = Aminopeptidase N (Plasmodium falciparum FcB1/Columbia, UniProt O96935); experiment: P. falciparum M1AAP inhibitors, biochemical, fluorogenic H-Leu-NHMec substrate, 1536-well (AID 1445); design: species or system Plasmodium falciparum 3D7, 3D7
Aminopeptidase N, sequence (O96935 whole entry): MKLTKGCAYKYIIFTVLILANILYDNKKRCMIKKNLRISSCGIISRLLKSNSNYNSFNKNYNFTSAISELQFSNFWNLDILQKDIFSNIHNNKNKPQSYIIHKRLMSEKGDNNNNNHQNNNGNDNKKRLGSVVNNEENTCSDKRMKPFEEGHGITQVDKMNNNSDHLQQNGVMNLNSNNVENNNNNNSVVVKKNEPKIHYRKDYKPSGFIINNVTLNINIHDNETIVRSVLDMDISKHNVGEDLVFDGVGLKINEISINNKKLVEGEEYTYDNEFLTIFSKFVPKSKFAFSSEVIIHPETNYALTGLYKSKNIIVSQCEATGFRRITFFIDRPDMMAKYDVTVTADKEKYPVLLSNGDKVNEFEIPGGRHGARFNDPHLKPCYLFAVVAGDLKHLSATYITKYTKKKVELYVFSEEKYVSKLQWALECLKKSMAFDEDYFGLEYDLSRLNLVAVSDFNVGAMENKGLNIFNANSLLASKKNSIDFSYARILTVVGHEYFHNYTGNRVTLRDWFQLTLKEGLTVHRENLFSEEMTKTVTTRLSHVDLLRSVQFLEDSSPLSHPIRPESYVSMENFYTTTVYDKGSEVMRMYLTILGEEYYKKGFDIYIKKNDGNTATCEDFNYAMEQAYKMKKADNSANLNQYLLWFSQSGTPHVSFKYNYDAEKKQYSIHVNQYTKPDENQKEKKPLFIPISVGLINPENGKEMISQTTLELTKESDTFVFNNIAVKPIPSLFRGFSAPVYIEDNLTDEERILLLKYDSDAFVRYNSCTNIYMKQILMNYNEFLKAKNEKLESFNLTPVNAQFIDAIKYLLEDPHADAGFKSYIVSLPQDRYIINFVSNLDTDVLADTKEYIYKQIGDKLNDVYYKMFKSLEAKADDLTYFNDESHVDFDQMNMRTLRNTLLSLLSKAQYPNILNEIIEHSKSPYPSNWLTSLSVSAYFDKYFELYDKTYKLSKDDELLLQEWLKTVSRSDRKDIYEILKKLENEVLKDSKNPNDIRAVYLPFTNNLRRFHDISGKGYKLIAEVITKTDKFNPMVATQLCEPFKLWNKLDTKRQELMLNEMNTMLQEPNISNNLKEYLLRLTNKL

Bcl-2-like protein 10 = Bcl-2-like protein 10 (Homo sapiens, UniProt Q9HD36); experiment: displacers of TR3 peptide from Bcl-B, primary screen, selectivity assay for Bfl-1 inhibitor project, biochemical, fluorescence polarization, FITC-TR3 peptide (AID 748);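 note: fluorescence polarization from a fluorescein-labelled TR3 peptide binding purified Bcl-B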
Bcl-2-like protein 10, sequence (Q9HD36 whole entry): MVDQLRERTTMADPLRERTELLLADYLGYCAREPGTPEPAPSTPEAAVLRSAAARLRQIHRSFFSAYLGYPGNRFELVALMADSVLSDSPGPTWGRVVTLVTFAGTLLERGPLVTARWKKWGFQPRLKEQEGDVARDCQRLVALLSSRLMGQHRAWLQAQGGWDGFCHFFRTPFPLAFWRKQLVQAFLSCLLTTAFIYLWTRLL

Ephrin type-A receptor 4 = Ephrin type-A receptor 4 (Mus musculus, UniProt Q03137); experiment: inhibitors of EphA4 binding to KYL peptide, primary screen, biochemical, colorimetric, mouse EphA4 (AID 689); type: functional
Ephrin type-A receptor 4, sequence (Q03137 whole entry): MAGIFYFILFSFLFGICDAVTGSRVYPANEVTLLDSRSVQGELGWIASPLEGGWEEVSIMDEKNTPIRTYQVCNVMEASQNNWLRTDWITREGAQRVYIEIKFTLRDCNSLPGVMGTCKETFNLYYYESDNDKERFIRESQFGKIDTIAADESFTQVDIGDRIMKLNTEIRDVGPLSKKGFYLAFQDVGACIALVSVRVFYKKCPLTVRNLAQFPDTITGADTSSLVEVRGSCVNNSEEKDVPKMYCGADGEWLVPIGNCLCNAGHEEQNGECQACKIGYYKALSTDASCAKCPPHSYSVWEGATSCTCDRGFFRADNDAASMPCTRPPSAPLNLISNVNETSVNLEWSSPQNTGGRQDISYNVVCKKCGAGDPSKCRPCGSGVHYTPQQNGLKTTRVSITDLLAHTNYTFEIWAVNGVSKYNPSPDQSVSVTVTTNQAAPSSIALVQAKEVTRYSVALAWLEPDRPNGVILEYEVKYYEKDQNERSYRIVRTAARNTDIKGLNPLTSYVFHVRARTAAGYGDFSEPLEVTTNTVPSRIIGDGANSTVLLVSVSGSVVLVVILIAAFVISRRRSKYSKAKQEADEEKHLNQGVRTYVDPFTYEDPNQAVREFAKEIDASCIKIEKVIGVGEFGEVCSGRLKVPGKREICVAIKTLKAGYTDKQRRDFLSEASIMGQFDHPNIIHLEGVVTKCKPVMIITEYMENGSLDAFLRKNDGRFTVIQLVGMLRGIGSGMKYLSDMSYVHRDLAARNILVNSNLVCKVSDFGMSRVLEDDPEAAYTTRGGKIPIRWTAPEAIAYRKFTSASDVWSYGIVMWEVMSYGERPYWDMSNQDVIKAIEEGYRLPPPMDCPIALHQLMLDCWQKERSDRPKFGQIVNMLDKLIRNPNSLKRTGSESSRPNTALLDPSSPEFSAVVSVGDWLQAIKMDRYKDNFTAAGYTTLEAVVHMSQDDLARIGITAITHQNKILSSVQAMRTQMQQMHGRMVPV

Trypsin = Trypsin (Sus scrofa, UniProt P00761); experiment: porcine trypsin inhibitors, dose response, selectivity assay for Rce1 protease inhibitor project, biochemical, quenched peptide fluorescence, cherry-pick (AID 488789)
Trypsin, sequence (P00761 whole entry): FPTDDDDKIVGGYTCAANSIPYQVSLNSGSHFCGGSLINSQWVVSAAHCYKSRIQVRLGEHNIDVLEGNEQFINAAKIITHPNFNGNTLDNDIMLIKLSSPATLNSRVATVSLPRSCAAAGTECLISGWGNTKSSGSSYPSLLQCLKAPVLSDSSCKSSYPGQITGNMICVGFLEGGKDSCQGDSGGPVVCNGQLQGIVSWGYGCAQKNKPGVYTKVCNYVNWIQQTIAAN

CAAX prenyl protease 2 = biological target: T1, CAAX prenyl protease 2 (Saccharomyces cerevisiae S288c, UniProt Q03530); type: biochemical
T1 sequence (Q03530 whole entry): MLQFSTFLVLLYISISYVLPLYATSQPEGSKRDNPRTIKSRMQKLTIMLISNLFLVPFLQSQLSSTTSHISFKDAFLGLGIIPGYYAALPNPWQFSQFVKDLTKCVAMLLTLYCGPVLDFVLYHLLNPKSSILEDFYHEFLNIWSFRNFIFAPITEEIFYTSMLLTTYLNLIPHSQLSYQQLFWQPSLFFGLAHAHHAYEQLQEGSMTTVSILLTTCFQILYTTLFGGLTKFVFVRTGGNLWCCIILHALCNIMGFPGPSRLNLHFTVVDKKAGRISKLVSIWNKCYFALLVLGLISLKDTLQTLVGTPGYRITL

CAAX prenyl protease 1 = CAAX prenyl protease 1 (Saccharomyces cerevisiae S288c, UniProt P47154); experiment: Ste24 protease inhibitors, dose response, biochemical, S. cerevisiae, plate reader, cherry-pick (AID 488815)
CAAX prenyl protease 1, sequence (P47154 whole entry): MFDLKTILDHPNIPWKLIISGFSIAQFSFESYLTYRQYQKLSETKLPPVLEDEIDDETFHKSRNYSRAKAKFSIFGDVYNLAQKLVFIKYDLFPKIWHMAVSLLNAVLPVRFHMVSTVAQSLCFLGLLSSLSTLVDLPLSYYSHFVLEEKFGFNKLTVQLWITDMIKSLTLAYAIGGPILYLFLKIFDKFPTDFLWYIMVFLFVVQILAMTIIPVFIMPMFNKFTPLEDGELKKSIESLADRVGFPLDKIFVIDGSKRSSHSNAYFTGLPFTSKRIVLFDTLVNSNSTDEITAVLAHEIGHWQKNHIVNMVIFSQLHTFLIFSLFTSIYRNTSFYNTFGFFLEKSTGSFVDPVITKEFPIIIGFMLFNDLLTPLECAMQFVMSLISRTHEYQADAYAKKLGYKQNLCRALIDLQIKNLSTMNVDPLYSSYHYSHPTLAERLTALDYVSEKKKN

Serine/threonine-protein phosphatase PP1-alpha catalytic subunit, sequence (P62136 whole entry): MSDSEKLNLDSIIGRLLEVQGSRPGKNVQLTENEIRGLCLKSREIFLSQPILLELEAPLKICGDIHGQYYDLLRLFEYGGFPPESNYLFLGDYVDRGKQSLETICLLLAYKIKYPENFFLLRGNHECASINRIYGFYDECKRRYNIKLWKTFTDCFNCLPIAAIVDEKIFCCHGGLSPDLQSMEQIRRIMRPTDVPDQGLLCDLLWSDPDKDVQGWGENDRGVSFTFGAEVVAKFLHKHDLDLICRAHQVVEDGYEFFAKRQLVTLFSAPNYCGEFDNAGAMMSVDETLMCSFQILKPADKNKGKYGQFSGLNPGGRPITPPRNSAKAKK

Q: With `CCOC(=O)c1cnc(-n2nc(C)cc2C)nc1NCc1ccc2c(c1)OCO2` as the molecule, how does the IC50 [1] read?
A: 5.21 µM (active)

Q: And the EC50 [2]?
A: 2.36 µM (active)

Q: What about the IC50 [3] of the same molecule?
A: > 67 µM (not active)

Q: And the EC50 [4]?
A: > 60 µM (not active)

Q: What about the AC50 [5] of the same molecule?
A: 8.74 µM (active)

Q: What about the AC50 [6] of the same molecule?
A: 63 µM (active)

Q: What about the AC50 [7] of the same molecule?
A: 16.1 µM (active)

Q: Which EC50 [8] does the source give for `Cc1cccn2c1nc(=S)n2C(=O)c1ccco1` here?
A: > 49.7 µM (not active)

Q: What about the EC50 [9] of the same molecule?
A: 1.05 µM (active)

Q: And the EC50 (Wee1-like protein kinase)?
A: > 49.7 µM (not active)

Q: And the EC50 (H4)?
A: 0.104 µM (active)

Q: For `CC(C)Oc1ccc(C(=O)N/N=C/c2ccc(-c3ccc(S(=O)(=O)Nc4ncccn4)cc3)o2)cc1`, which IC50 (Aminopeptidase N) is on record?
A: 23.1 µM (active)

Q: Which IC50 (Bcl-2-like protein 10) does the source give for `CCn1ccc(C(=O)Nc2ccc(S(=O)(=O)Nc3ccccc3OC)cc2)n1` here?
A: > 100 µM (inactive)

Q: Which IC50 (Ephrin type-A receptor 4) does the source give for `O=C(O)c1ccc(CN(c2ccccn2)S(=O)(=O)c2ccccc2)cc1` here?
A: > 100 µM (not active)

Q: What about the AC50 (Trypsin) of the same molecule?
A: 16.6 µM (active)

Q: And the AC50 (CAAX prenyl protease 2)?
A: 22 µM (active)

Q: And the AC50 (CAAX prenyl protease 1)?
A: 3.92 µM (active)
